Results as given in EP3597653A1, “CYCLIC INHIBITORS OF HEPATITIS B VIRUS” (IRBM S.P.A., priority 2018, dated 2020).

These molecules were tested on HBV (assay: HBV inhibition assay in HepAD38 cells (extracellular HBV DNA by direct qPCR)). Settings: Hepatitis B virus, 8-point dose-response curve, 96 hours, read-out: HBV inh EC50.
Assay type: cell-based
Method in brief: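 HepAD38 cells (HepG2, tetracycline-off HBV) induced in tetracycline-free medium, treated 96 h at 37 °C with compound, 0.5% DMSO. Extracellular HBV DNA quantified by direct SYBR qPCR of lysed supernatant, as % of untreated; EC50 from 8-point 1:2 curves; cytotoxicity by CellTiter-Blue.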

| Structure (SMILES) | EC50 [nM] |
| --- | --- |
| Cc1cc(C(=O)Nc2cc(F)c(F)c(F)c2)cc2c1NCNS2(=O)=O [Example E88, 5-methyl-N-(3,4,5-trifluorophenyl)-3,4-dihydro-2H-benzo[e][1,2,4]thiadiazine-7-carboxamide 1,1-dioxide] | > 1000 |
| O=C(Nc1cc(F)c(F)c(F)c1)c1ccc2c(c1)S(=O)(=O)NCCN2 [Example E94, N-(3,4,5-trifluorophenyl)-2,3,4,5-tetrahydrobenzo[f][1,2,5]thiadiazepine-8-carboxamide 1,1-dioxide] | > 1000 |

Same assay, conditions: Hepatitis B virus, compound at 0.1 µM, 96 hours, relative to non-treated reference, read-out: Anti HBV Activity (conc µM)

| Structure (SMILES) | inhibition at 0.1 µM [%] |
| --- | --- |
| O=C(Nc1cc(F)c(F)c(F)c1)c1ccc2c(c1)S(=O)(=O)N([C@H]1CCNC1)C(=O)N2 [Example E84, (S)-3-oxo-2-(pyrrolidin-3-yl)-N-(3,4,5-trifluorophenyl)-3,4-dihydro-2H-benzo[e][1,2,4]thiadiazine-7-carboxamide 1,1-dioxide] | < 50 |
| CN1CC[C@H](N2C(=O)Nc3ccc(C(=O)Nc4cc(F)c(F)c(F)c4)cc3S2(=O)=O)C1 [Example E85, (S)-2-(1-methylpyrrolidin-3-yl)-3-oxo-N-(3,4,5-trifluorophenyl)-3,4-dihydro-2H-benzo[e][1,2,4]thiadiazine-7-carboxamide 1,1-dioxide] | < 50 |

Same assay, conditions: Hepatitis B virus, compound at 0.5 µM, 96 hours, relative to non-treated reference, read-out: Anti HBV Activity (conc µM)

| Structure (SMILES) | inhibition at 0.5 µM [%] |
| --- | --- |
| C[C@H](N1C(=O)Nc2ccc(C(=O)Nc3cc(F)c(F)c(F)c3)cc2S1(=O)=O)C(F)(F)F [Example E78, (S)-3-oxo-N-(3,4,5-trifluorophenyl)-2-(1,1,1-trifluoropropan-2-yl)-3,4-dihydro-2H-benzo[e][1,2,4]thiadiazine-7-carboxamide 1,1-dioxide] | > 50 |
| O=C(Nc1cc(F)c(F)c(F)c1)c1ccc2c(c1)S(=O)(=O)N(C1COC1)C(=O)N2 [Example E82, 2-(oxetan-3-yl)-3-oxo-N-(3,4,5-trifluorophenyl)-3,4-dihydro-2H-benzo[e][1,2,4]thiadiazine-7-carboxamide 1,1-dioxide] | > 50 |
| CC(C)(C)OC(=O)N1CC[C@H](N2C(=O)Nc3ccc(C(=O)Nc4cc(F)c(F)c(F)c4)cc3S2(=O)=O)C1 [Example E83, tert-butyl (S)-3-(1,1-dioxido-3-oxo-7-((3,4,5-trifluorophenyl)carbamoyl)-3,4-dihydro-2H-benzo[e][1,2,4]thiadiazin-2-yl)pyrrolidine-1-carboxylate] | < 50 |
| O=C(Nc1cc(F)c(F)c(F)c1)c1ccc2c(c1)S(=O)(=O)N(C1CC(O)C1)C(=O)N2 (stereo not shown) [Example E86, 2-(3-hydroxycyclobutyl)-3-oxo-N-(3,4,5-trifluorophenyl)-3,4-dihydro-2H-benzo[e][1,2,4]thiadiazine-7-carboxamide 1,1-dioxide] | > 50 |
| O=C(Nc1cc(F)c(F)c(F)c1)c1ccc2c(c1)S(=O)(=O)N([C@H]1CC[C@@H](O)CC1)C(=O)N2 [Example E87, cis-2-(4-hydroxycyclohexyl)-3-oxo-N-(3,4,5-trifluorophenyl)-3,4-dihydro-2H-benzo[e][1,2,4]thiadiazine-7-carboxamide 1,1-dioxide] | > 50 |
| O=C(Nc1ccc(Cl)nc1)c1ccc2c(c1)S(=O)(=O)NCN2 [Example E92, N-(6-chloropyridin-3-yl)-3,4-dihydro-2H-benzo[e][1,2,4]thiadiazine-7-carboxamide 1,1-dioxide] | < 50 |
| O=C(Nc1cc(F)c(F)c(F)c1)c1cnc2c(c1)S(=O)(=O)NCN2 [Example E93, N-(3,4,5-trifluorophenyl)-3,4-dihydro-2H-pyrido[2,3-e][1,2,4]thiadiazine-7-carboxamide 1,1-dioxide] | < 50 |
| O=C(Nc1cc(F)c(F)c(F)c1)c1ccc2c(c1)S(=O)(=O)N[C@H]1CCC[C@@H]1N2 [Example E95, (3aS, 10aS)-N-(3,4,5-trifluorophenyl)-2,3,3a,4,10,10a-hexahydro-1H-benzo[f]cyclopenta[c][1,2,5]thiadiazepine-7-carboxamide 5,5-dioxide] | < 50 |

Same assay, conditions: Hepatitis B virus, compound at 1 µM, 96 hours, relative to non-treated reference, read-out: Anti HBV Activity (conc µM)

| Structure (SMILES) | inhibition at 1 µM [%] |
| --- | --- |
| O=C(Nc1cc(F)c(F)c(F)c1)c1ccc2c(c1)S(=O)(=O)N(C1CC1)C(=O)N2 [Example E79, 2-cyclopropyl-3-oxo-N-(3,4,5-trifluorophenyl)-3,4-dihydro-2H-benzo[e][1,2,4]thiadiazine-7-carboxamide 1,1-dioxide] | < 50 |
| O=C(Nc1cc(F)c(F)c(F)c1)c1ccc2c(c1)S(=O)(=O)N([C@H]1CC[C@H](O)CC1)C(=O)N2 [Example E80, trans-2-(4-hydroxycyclohexyl)-3-oxo-N-(3,4,5-trifluorophenyl)-3,4-dihydro-2H-benzo[e][1,2,4]thiadiazine-7-carboxamide 1,1-dioxide] | > 50 |
| O=C(Nc1cc(F)c(F)c(F)c1)c1ccc2c(c1)S(=O)(=O)N(C1CCNCC1)C(=O)N2 [Example E81, 3-oxo-2-(piperidin-4-yl)-N-(3,4,5-trifluorophenyl)-3,4-dihydro-2H-benzo[e][1,2,4]thiadiazine-7-carboxamide 1,1-dioxide] | > 50 |
| Cc1cc(C(=O)Nc2cc(F)c(F)c(F)c2)cc2c1NC(c1nccs1)NS2(=O)=O (stereo not shown) [Example E89, 5-methyl-3-(thiazol-2-yl)-N-(3,4,5-trifluorophenyl)-3,4-dihydro-2H-benzo[e][1,2,4]thiadiazine-7-carboxamide 1,1-dioxide] | > 50 |
| N#Cc1cc(NC(=O)c2ccc3c(c2)S(=O)(=O)NC=N3)ccc1F [Example E90, N-(3-cyano-4-fluorophenyl)-2H-benzo[e][1,2,4]thiadiazine-7-carboxamide 1,1-dioxide] | < 50 |
| N#Cc1cc(NC(=O)c2ccc3c(c2)S(=O)(=O)NCN3)ccc1F [Example E91, N-(3-cyano-4-fluorophenyl)-3,4-dihydro-2H-benzo[e][1,2,4]thiadiazine-7-carboxamide 1,1-dioxide] | < 50 |
| O=C(Nc1cc(F)c(F)c(F)c1)c1ccc2c(c1)S(=O)(=O)N1CCCCC1CN2 (stereo not shown) [Example E101, N-(3,4,5-trifluorophenyl)-1,3,4,11,12,12a-hexahydro-2H-benzo[f]pyrido[1,2-b][1,2,5]thiadiazepine-8-carboxamide 6,6-dioxide] | > 50 |
| CN1CC2CCCCN2S(=O)(=O)c2cc(C(=O)Nc3cc(F)c(F)c(F)c3)ccc21 (stereo not shown) [Example E102, 11-methyl-N-(3,4,5-trifluorophenyl)-1,3,4,11,12,12a-hexahydro-2H-benzo[f]pyrido[1,2-b][1,2,5]thiadiazepine-8-carboxamide 6,6-dioxide] | < 50 |
| O=C(Nc1cc(F)c(F)c(F)c1)c1ccc2c(c1)S(=O)(=O)N1CCCC[C@H]1CN2 [Example E103, (S)-N-(3,4,5-trifluorophenyl)-1,3,4,11,12,12a-hexahydro-2H-benzo[f]pyrido[1,2-b][1,2,5]thiadiazepine-8-carboxamide 6,6-dioxide] | < 50 |
| O=C(Nc1cc(F)c(F)c(F)c1)c1ccc2c(c1)S(=O)(=O)N1CCCC[C@@H]1CN2 [Example E104, (R)-N-(3,4,5-trifluorophenyl)-1,3,4,11,12,12a-hexahydro-2H-benzo[f]pyrido[1,2-b][1,2,5]thiadiazepine-8-carboxamide 6,6-dioxide] | > 50 |
| O=C(Nc1cc(F)c(F)c(F)c1)c1ccc2c(c1)S(=O)(=O)N1CC[C@@H](C1)N2 [Example E105, (5S)-N-(3,4,5-trifluorophenyl)-3,4,5,6-tetrahydro-2,5-methanobenzo[g][1,2,6]thiadiazocine-9-carboxamide 1,1-dioxide] | < 50 |
| O=C(Nc1cc(F)c(F)c(F)c1)c1ccc2c(c1)S(=O)(=O)N1CCCC1CN2 (stereo not shown) [Example E106, N-(3,4,5-trifluorophenyl)-1,2,3,10,11,11a-hexahydrobenzo[f]pyrrolo[1,2-b][1,2,5]thiadiazepine-7-carboxamide 5,5-dioxide] | < 50 |
| O=C(Nc1cc(F)c(F)c(F)c1)c1ccc2c(c1)S(=O)(=O)N1CCC1CN2 (stereo not shown) [Example E107, N-(3,4,5-trifluorophenyl)-1,9,10,10a-tetrahydro-2H-azeto[1,2-b]benzo[f][1,2,5]thiadiazepine-6-carboxamide 4,4-dioxide] | < 50 |
| O=C(Nc1cc(F)c(F)c(F)c1)c1ccc2c(c1)S(=O)(=O)N1CCOCC1CN2 (stereo not shown) [Example E108, N-(3,4,5-trifluorophenyl)-1,3,4,11,12,12a-hexahydrobenzo[f][1,4]oxazino[4,3-b][1,2,5]thiadiazepine-8-carboxamide 6,6-dioxide] | < 50 |
| O=C(Nc1cc(F)c(F)c(F)c1)c1ccc2c(c1)S(=O)(=O)n1ccnc1CN2 [Example E109, N-(3,4,5-trifluorophenyl)-10,11-dihydrobenzo[f]imidazo[1,2-b][1,2,5]thiadiazepine-7-carboxamide 5,5-dioxide] | < 50 |
| O=C(Nc1ccc(F)c(F)c1)c1ccc2c(c1)S(=O)(=O)N1CCN2CC1 [Example E110, N-(3,4-difluorophenyl)-3,4-dihydro-2,5-ethanobenzo[f][1,2,5]thiadiazepine-8-carboxamide 1,1-dioxide] | < 50 |
| O=C(Nc1cc(F)c(F)c(F)c1)c1ccc2c(c1)S(=O)(=O)N1CCCCC1CO2 (stereo not shown) [Example E111, N-(3,4,5-trifluorophenyl)-1,2,3,4,12,12a-hexahydrobenzo[b]pyrido[1,2-e][1,4,5]oxathiazepine-8-carboxamide 6,6-dioxide] | < 50 |
| O=C(Nc1cc(F)c(F)c(F)c1)c1ccc2c(c1)S(=O)(=O)N1CCCC[C@@H]1CO2 [Example E112, (R)-N-(3,4,5-trifluorophenyl)-1,2,3,4,12,12a-hexahydrobenzo[b]pyrido[1,2-e][1,4,5]oxathiazepine-8-carboxamide 6,6-dioxide] | < 50 |
| O=C(Nc1cc(F)c(F)c(F)c1)c1ccc2c(c1)S(=O)(=O)N1CCCC[C@H]1CO2 [Example E113, (S)-N-(3,4,5-trifluorophenyl)-1,2,3,4,12,12a-hexahydrobenzo[b]pyrido[1,2-e][1,4,5]oxathiazepine-8-carboxamide 6,6-dioxide] | < 50 |
